Results taken from US20260297081A1, “COMPOUNDS AND METHODS OF TREATING CANCERS” (Cullgen Inc., priority 2023, published 2026).

How the values were obtained:
Type in all cases: cell-based
[1] = biological target: T1, CDK4 (Homo sapiens, UniProt P11802+Q16531); assay: CDK4 percentage degradation in Calu-1 cells (Table 6); parameters: Cells that express cyclin D1-3 and CDK4/6 proteins were treated with heterobifunctional compounds; endogenous in cells; host or cells: Calu-1; settings: 16 hours; for inhibition at 0.04 µM: 40 nM; for inhibition at 0.2 µM: 200 nM
Method in brief: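 Percentage degradation of Cyclin D1 and CDK4 derived from densitometry of ECL Western blots on lysates of Calu-1 cells. Treatment was 16 h with compound at either 40 nM or 200 nM.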
Target sequence in this assay (P11802 2-303 limits assumed): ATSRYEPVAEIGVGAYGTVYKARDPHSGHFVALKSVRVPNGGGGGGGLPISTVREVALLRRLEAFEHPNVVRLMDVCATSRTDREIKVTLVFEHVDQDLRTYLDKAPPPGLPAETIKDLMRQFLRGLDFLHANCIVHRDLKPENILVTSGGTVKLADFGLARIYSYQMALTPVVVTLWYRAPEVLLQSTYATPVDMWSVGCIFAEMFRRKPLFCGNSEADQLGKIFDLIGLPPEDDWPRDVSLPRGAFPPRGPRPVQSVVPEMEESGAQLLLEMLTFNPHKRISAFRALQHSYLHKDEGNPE
Target sequence in this assay (P24385 whole entry partner): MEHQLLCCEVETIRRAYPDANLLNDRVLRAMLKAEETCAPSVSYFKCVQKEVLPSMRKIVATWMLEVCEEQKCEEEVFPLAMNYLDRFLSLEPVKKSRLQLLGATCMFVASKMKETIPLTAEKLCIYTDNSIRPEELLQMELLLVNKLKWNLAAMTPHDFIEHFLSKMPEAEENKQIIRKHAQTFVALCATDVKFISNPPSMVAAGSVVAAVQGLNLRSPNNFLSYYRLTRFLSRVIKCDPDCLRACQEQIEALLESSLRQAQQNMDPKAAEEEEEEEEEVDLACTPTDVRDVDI
Target sequence in this assay (Q16531 2-1140 limits assumed): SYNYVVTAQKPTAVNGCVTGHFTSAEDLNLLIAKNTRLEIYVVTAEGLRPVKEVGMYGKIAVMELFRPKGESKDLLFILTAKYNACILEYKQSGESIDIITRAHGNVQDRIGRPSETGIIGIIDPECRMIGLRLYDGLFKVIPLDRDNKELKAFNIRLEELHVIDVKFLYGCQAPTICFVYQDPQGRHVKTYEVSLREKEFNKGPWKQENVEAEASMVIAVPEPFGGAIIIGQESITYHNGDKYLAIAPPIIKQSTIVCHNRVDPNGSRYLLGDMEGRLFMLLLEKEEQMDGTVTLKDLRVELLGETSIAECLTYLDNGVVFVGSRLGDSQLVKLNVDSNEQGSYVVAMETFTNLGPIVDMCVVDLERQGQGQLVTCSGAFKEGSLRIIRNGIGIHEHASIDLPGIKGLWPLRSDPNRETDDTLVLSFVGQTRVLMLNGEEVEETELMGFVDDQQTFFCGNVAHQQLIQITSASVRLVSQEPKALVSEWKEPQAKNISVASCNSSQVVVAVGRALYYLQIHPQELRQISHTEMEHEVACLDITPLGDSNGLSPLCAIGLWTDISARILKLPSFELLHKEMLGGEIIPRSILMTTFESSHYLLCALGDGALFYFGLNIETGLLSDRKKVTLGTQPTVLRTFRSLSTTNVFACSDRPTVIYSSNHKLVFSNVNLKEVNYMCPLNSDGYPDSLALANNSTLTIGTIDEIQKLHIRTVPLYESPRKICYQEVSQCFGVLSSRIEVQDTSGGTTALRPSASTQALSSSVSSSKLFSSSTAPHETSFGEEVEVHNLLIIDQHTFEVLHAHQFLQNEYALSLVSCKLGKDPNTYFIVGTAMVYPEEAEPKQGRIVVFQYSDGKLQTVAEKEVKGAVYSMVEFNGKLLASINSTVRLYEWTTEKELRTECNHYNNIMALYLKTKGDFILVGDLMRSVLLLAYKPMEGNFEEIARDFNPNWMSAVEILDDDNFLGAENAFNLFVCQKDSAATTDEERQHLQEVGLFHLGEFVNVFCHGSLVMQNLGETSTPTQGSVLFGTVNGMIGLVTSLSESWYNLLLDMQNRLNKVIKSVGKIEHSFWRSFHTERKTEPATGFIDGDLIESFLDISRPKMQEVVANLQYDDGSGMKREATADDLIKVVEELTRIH

[2] = system: T47D cells; assay: Anti-proliferation (viability) of ER+ breast cancer T47D cells, 6 days (Table 7, FIG. 2B); settings: Homo sapiens, 144 h; T47D cells, 6 days, 10-point serial dilution; read-out: GI IC50 in T47D
Experimental: To evaluate anti-proliferation activities of heterobifunctional compounds, NSCLC Calu-1 or ER+ breast cancer T47D cells were treated with selected heterobifunctional compounds following a 10-point serial dilution for 3 or 6 days, respectively.
To verify that heterobifunctional compound-mediated degradation is dependent on the binding to CDK4-cyclin D complex, a negative control compound, CPD-143, which is derived from active heterobifunctional compound CPD-10 was designed. CPD-143 bears the same DDB1 ligand and linker as CPD-10 but with a modified warhead to impair the binding of the control compound to CDK4.

[3] = system: MCF7 cells; assay: Anti-proliferation (viability) of MCF7 cells (Table 7, FIG. 2B); settings: Homo sapiens, MCF7, MCF7 cells, 3-6 days, 10-point serial dilution; read-out: GI IC50 in MCF-7
[4] = biological target: T1, CDK4; assay: HiBiT detection of HiBiT-tagged CDK4 protein level in MCF7 cells, 16 hours (Table 8); parameters: expressed in transfected cells; host or cells: MCF7; settings: MCF7 cells stably expressing HiBiT tagged target proteins; for activity at 0.01 µM: 10 nM, read-out: % CDK4 Relative Level (10 nM); for activity at 0.1 µM: 100 nM, read-out: % CDK4 Relative Level (100 nM)
Experimental: HiBiT detection system quantitatively measures total amounts of HiBiT-tagged proteins using a luminescent based method. MCF7 cells stably expressing HiBiT tagged target proteins were treated with heterobifunctional compounds at indicated concentrations for 16 hours, then lysed with Nano-Glo HiBiT Lytic detection reagents.
Target sequence in this assay (P11802 whole entry): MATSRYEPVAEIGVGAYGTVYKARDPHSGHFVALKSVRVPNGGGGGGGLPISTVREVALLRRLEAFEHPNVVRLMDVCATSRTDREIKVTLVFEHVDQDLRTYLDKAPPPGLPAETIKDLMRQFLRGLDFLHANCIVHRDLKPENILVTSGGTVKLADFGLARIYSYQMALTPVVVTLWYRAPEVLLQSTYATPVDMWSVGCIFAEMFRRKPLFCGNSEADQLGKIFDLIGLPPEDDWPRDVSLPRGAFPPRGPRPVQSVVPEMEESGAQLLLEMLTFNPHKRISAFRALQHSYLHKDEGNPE
Target sequence in this assay (P24385 whole entry partner): as the sequence (P24385 whole entry partner) above
Target sequence in this assay (Q16531 2-1140 limits assumed): as the sequence (Q16531 2-1140 limits assumed) above

[5] = system: Calu-1 cells; assay: Anti-proliferation (viability) of NSCLC Calu-1 cells, 3 days (Table 7, FIG. 2B); settings: Homo sapiens, 72 h; Calu-1 cells, 3 days, 10-point serial dilution; read-out: GI IC50 in Calu-1
Method in brief: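 Viability is read after treatment with compounds titrated over ten serial dilution points, with exposure lasting three days for the NSCLC line and six days for the breast cancer line.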

CC(=O)c1c(C)c2cnc(Nc3ccc(N4CCN(CC(=O)NCC5CC(Nc6nc(C)ccc6C(=O)Nc6cc(C)n(C)n6)C5)CC4)cn3)nc2n(C2CCCC2)c1=O (stereo not drawn) [CPD-209, 2-((3-((2-(4-(6-((6-acetyl-8-cyclopentyl-5-methyl-7-oxo-7,8-dihydropyrido[2,3-d]pyrimidin-2-yl)amino)pyridin-3-yl)piperazin-1-yl)acetamido)methyl)cyclobutyl)amino)-N-(1,5-dimethyl-1H-pyrazol-3-yl)-6-methylnicotinamide] was tested, and the inhibition at 0.04 µM [1] was 30 to 50%, the inhibition at 0.2 µM [1] was 50 to 80% and the IC50 [2] was no less than 100 nM.
In the case of [2H]C([2H])([2H])Nc1ccc(C(=O)Nc2cccc(C3CC3)n2)c(NC2CCN(C(=O)CN3CCN(c4ccc(Nc5ncc6c(C)c(C(C)=O)c(=O)n(C7CCCC7)c6n5)nc4)CC3)CC2)n1 [CPD-252, 2-((1-(2-(4-(6-((6-acetyl-8-cyclopentyl-5-methyl-7-oxo-7,8-dihydropyrido[2,3-d]pyrimidin-2-yl)amino)pyridin-3-yl)piperazin-1-yl)acetyl)piperidin-4-yl)amino)-N-(6-cyclopropylpyridin-2-yl)-6-((methyl-d3)amino)nicotinamide], the IC50 [2] is reported as no less than 100 nM.
CNc1ccc(C(=O)Nc2cn(C)c(C3CC3)n2)c(NC2CC(CNC(=O)CN3CCN(c4ccc(Nc5ncc6c(C)c(C(C)=O)c(=O)n(C7CCCC7)c6n5)nc4)CC3)C2)n1 (stereo not drawn) [CPD-254, 2-((3-((2-(4-(6-((6-acetyl-8-cyclopentyl-5-methyl-7-oxo-7,8-dihydropyrido[2,3-d]pyrimidin-2-yl)amino)pyridin-3-yl)piperazin-1-yl)acetamido)methyl)cyclobutyl)amino)-N-(2-cyclopropyl-1-methyl-1H-imidazol-4-yl)-6-(methylamino)nicotinamide] showed an IC50 [3] greater than 100 nM and an IC50 [2] of no less than 100 nM.
Work on CC(=O)c1c(C)c2cnc(Nc3ccc(N4CCN(CC(=O)NCC5CC(Nc6c(F)cccc6C(=O)Nc6cc(C)n(C)n6)C5)CC4)cn3)nc2n(C2CCCC2)c1=O (stereo not drawn) [CPD-265, 2-((3-((2-(4-(6-((6-acetyl-8-cyclopentyl-5-methyl-7-oxo-7,8-dihydropyrido[2,3-d]pyrimidin-2-yl)amino)pyridin-3-yl)piperazin-1-yl)acetamido)methyl)cyclobutyl)amino)-N-(1,5-dimethyl-1H-pyrazol-3-yl)-3-fluorobenzamide] yielded an IC50 [2] of no less than 100 nM.
CC(=O)c1c(C)c2cnc(Nc3ccc(N4CCN(CC(=O)NCC5CC(Nc6c(C(=O)Nc7cc(C)n(C)n7)cccc6C(F)(F)F)C5)CC4)cn3)nc2n(C2CCCC2)c1=O (stereo not drawn) [CPD-266, 2-((3-((2-(4-(6-((6-acetyl-8-cyclopentyl-5-methyl-7-oxo-7,8-dihydropyrido[2,3-d]pyrimidin-2-yl)amino)pyridin-3-yl)piperazin-1-yl)acetamido)methyl)cyclobutyl)amino)-N-(1,5-dimethyl-1H-pyrazol-3-yl)-3-(trifluoromethyl)benzamide] was tested, and the IC50 [2] was no less than 100 nM.
Molecule CC(=O)c1c(C)c2cnc(Nc3ccc(N4CCN(CC(=O)NCC5CC(Nc6nc(NC(C)C)ccc6C(=O)Nc6cc(C)on6)C5)CC4)cn3)nc2n(C2CCCC2)c1=O (stereo not drawn) [CPD-282, 2-((3-((2-(4-(6-((6-acetyl-8-cyclopentyl-5-methyl-7-oxo-7,8-dihydropyrido[2,3-d]pyrimidin-2-yl)amino)pyridin-3-yl)piperazin-1-yl)acetamido)methyl)cyclobutyl)amino)-6-(isopropylamino)-N-(5-methylisoxazol-3-yl)nicotinamide] has an inhibition at 0.04 µM [1] of less than 30%, an inhibition at 0.2 µM [1] of less than 30% and an activity at 0.01 µM [4] of 55 to 85%. It also gave an activity at 0.1 µM [4] of 55 to 85%, an IC50 [3] of less than 50 nM and an IC50 [5] of no more than 10 nM.
For CC(=O)c1c(C)c2cnc(Nc3ccc(CN4CCN(C(C)C(=O)N5CCC6(CCC(Nc7nc(NC(C)C)ccc7C(=O)Nc7ccc(N(C)C)nn7)C6)C5)CC4)cn3)nc2n(C2CCCC2)c1=O (stereo not drawn) [CPD-550, 2-((2-(2-(4-((6-((6-acetyl-8-cyclopentyl-5-methyl-7-oxo-7,8-dihydropyrido[2,3-d]pyrimidin-2-yl)amino)pyridin-3-yl)methyl)piperazin-1-yl)propanoyl)-2-azaspiro[4.4]nonan-7-yl)amino)-N-(6-(dimethylamino)pyridazin-3-yl)-6-(isopropylamino)nicotinamide], the activity at 0.01 µM [4] was greater than 85%, the activity at 0.1 µM [4] was greater than 85% and the IC50 [3] was less than 50 nM. The IC50 [5] was no more than 10 nM.
CC(=O)c1c(C)c2cnc(Nc3ccc(C(C)N4CCN(CC(=O)N5CCC6(CCC(Nc7nc(NC(C)C)ccc7C(=O)Nc7ccc(N(C)C)nn7)C6)C5)CC4)cn3)nc2n(C2CCCC2)c1=O (stereo not drawn) [CPD-551, 2-((2-(2-(4-(1-(6-((6-acetyl-8-cyclopentyl-5-methyl-7-oxo-7,8-dihydropyrido[2,3-d]pyrimidin-2-yl)amino)pyridin-3-yl)ethyl)piperazin-1-yl)acetyl)-2-azaspiro[4.4]nonan-7-yl)amino)-N-(6-(dimethylamino)pyridazin-3-yl)-6-(isopropylamino)nicotinamide] gave an activity at 0.01 µM [4] greater than 85%, an activity at 0.1 µM [4] of 55 to 85% and an IC50 [3] of less than 50 nM. It also gave an IC50 [5] of no more than 10 nM.
For CC(=O)c1c(C)c2cnc(Nc3ccc(N4CCC5(CCN(CC(=O)N6CC7(CC(Nc8nc(NC(C)C)ccc8C(=O)Nc8cn9c(n8)CCC9)C7)C6)C5)C4)cn3)nc2n(C2CCCC2)c1=O (stereo not drawn) [CPD-565, 2-((2-(2-(7-(6-((6-acetyl-8-cyclopentyl-5-methyl-7-oxo-7,8-dihydropyrido[2,3-d]pyrimidin-2-yl)amino)pyridin-3-yl)-2,7-diazaspiro[4.4]nonan-2-yl)acetyl)-2-azaspiro[3.3]heptan-6-yl)amino)-N-(6,7-dihydro-5H-pyrrolo[1,2-a]imidazol-2-yl)-6-(isopropylamino)nicotinamide], the activity at 0.01 µM [4] was greater than 85%, the activity at 0.1 µM [4] was 55 to 85% and the IC50 [3] was less than 50 nM. The IC50 [5] was no more than 10 nM.
For CC(=O)c1c(C)c2cnc(Nc3ccc(CN4CCN(CC(=O)N5CCC6(CC(Nc7nc(NC(C)C)ccc7C(=O)Nc7ccc(N(C)C)nn7)C6)C5)CC4)cn3)nc2n(C2CCCC2)c1=O (stereo not drawn) [CPD-570, 2-((6-(2-(4-((6-((6-acetyl-8-cyclopentyl-5-methyl-7-oxo-7,8-dihydropyrido[2,3-d]pyrimidin-2-yl)amino)pyridin-3-yl)methyl)piperazin-1-yl)acetyl)-6-azaspiro[3.4]octan-2-yl)amino)-N-(6-(dimethylamino)pyridazin-3-yl)-6-(isopropylamino)nicotinamide], the activity at 0.01 µM [4] was greater than 85%, the activity at 0.1 µM [4] was 55 to 85% and the IC50 [3] was less than 50 nM. The IC50 [5] was no more than 10 nM.
Molecule CC(=O)c1c(C)c2cnc(Nc3ccc(CN4CCN(CC(=O)NC5CC6(C5)CC(Nc5nc(NC(C)C)ccc5C(=O)Nc5cn(C)c(C7CC7)n5)C6)CC4)cn3)nc2n(C2CCCC2)c1=O (stereo not drawn) [CPD-589, 2-((6-(2-(4-((6-((6-acetyl-8-cyclopentyl-5-methyl-7-oxo-7,8-dihydropyrido[2,3-d]pyrimidin-2-yl)amino)pyridin-3-yl)methyl)piperazin-1-yl)acetamido)spiro[3.3]heptan-2-yl)amino)-N-(2-cyclopropyl-1-methyl-1H-imidazol-4-yl)-6-(isopropylamino)nicotinamide] has an activity at 0.01 µM [4] of 55 to 85%, an activity at 0.1 µM [4] of 55 to 85% and an IC50 [3] of less than 50 nM. For the same molecule, the IC50 [5] was no more than 10 nM.
CC(=O)c1c(C)c2cnc(Nc3ccc(N4CCN(C5CCN(C(=O)C67CC(Nc8nc(NC(C)C)ccc8C(=O)Nc8cc9n(n8)CCC9)(C6)C7)C5)CC4)cn3)nc2n(C2CCCC2)c1=O (stereo not drawn) [CPD-592, 2-((3-(3-(4-(6-((6-acetyl-8-cyclopentyl-5-methyl-7-oxo-7,8-dihydropyrido[2,3-d]pyrimidin-2-yl)amino)pyridin-3-yl)piperazin-1-yl)pyrrolidine-1-carbonyl)bicyclo[1.1.1]pentan-1-yl)amino)-N-(5,6-dihydro-4H-pyrrolo[1,2-b]pyrazol-2-yl)-6-(isopropylamino)nicotinamide] gave an activity at 0.01 µM [4] of 55 to 85%, an activity at 0.1 µM [4] of 55 to 85% and an IC50 [3] of less than 50 nM. The IC50 [5] was no more than 10 nM.
For CNc1ccc(C(=O)Nc2ccc(N(C)C)nn2)c(NCCC(=O)N2CCN(c3ccc(Nc4ncc5cc(C(=O)N(C)C)n(C6CCCC6)c5n4)nc3)CC2)n1 [CPD-616, 7-cyclopentyl-2-((5-(4-(3-((3-((6-(dimethylamino)pyridazin-3-yl)carbamoyl)-6-(methylamino)pyridin-2-yl)amino)propanoyl)piperazin-1-yl)pyridin-2-yl)amino)-N,N-dimethyl-7H-pyrrolo[2,3-d]pyrimidine-6-carboxamide], the activity at 0.01 µM [4] was greater than 85%, the activity at 0.1 µM [4] was greater than 85% and the IC50 [3] was greater than 100 nM. For the same molecule, the IC50 [5] was no less than 50 nM.
